Measured values taken from EP4582413A1, “ARYLTETRAHYDROPYRIDINE COMPOUND AND PEST CONTROL AGENT” (priority 2022, dated 2024).

Assays:
Format in all cases: in vivo
[1] = tested on: diamondback moths (Plutella xylostella); test: Insecticidal test for diamondback moths; settings: Plutella xylostella, 144 h; 500 ppm chemical solution, leaves soaked, third-instar larvae, six days, 25°C; read-out: death rate
Method in brief: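 Leaves dipped about 10 s in a 500 ppm aqueous dilution of an emulsion formulation with spreader, then air-dried. Five third-instar larvae released per dish and held at 25 °C. Tested in duplicate.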

[2] = tested on: green peach aphids (Myzus persicae); test: Insecticidal test for green peach aphids; settings: Myzus persicae, foliar, 144 h; 500 ppm chemical solution sprinkled (2.5 mg/cm^2), wingless imagoes on leaf disc, six days, 25°C; read-out: death rate
Experimental: Wet absorbent cotton was laid on each glass dish having an inner diameter of 3 cm, a Chinese olive leaf cut into a circle having a diameter of 3 cm was placed thereon, and four wingless green peach aphids (Myzus persicae) imagoes were released. After a day, a 10% by mass emulsion of the presently invented compound prepared according to the above formulation example for an emulsion was diluted with water containing a spreader to prepare a chemical solution having a concentration of 500 ppm. The chemical solution prepared was sprinkled (2.5 mg/cm^2) with a rotary tower sprinkler, and the dishes were capped and accommodated in a thermostatic room at 25°C. […] The test was carried out in duplicate.

[3] = tested on: western flower thrips (Frankliniella occidentalis); test: Insecticidal activity against western flower thrips; settings: Frankliniella occidentalis, 48 h; 500 ppm chemical solution sprinkled (2.5 mg/cm^2), larvae on common bean leaf, after 2 days; read-out: death rate
Method in brief: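 Bean leaf squares on wet filter paper inoculated with 20 larvae. Compound emulsion diluted with spreader-containing water to 500 ppm and sprayed at 2.5 mg/cm^2 by rotary tower. Run in duplicate.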

[4] = tested on: cat fleas (Ctenocephalides felis); test: whole plant or invertebrate; settings: 72 h, read-out: death rate
Method in brief: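 Glass containers (25 cm² inner surface) were coated with 250 µl of a 1000 ppm acetone solution, and the acetone was evaporated to leave a dry film. Five mixed-sex adult fleas were confined per container at 25°C. Mortality was scored after 3 days.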

[5] = tested on: brown rice planthoppers (Nilaparvata lugens); test: Insecticidal test for brown rice planthoppers; settings: Nilaparvata lugens, 144 h; 500 ppm chemical solution, rice leaf sheaths soaked, third-instar larvae, six days, 25°C; read-out: death rate
Method in brief: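 Rice leaf sheaths dipped ~10 s in 500 ppm compound solution (emulsion diluted in water with spreader), air-dried, then infested with five third-instar larvae per tube at 25 °C. Mortality scored after 6 days, death rate calculated, in duplicate.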

Row | SMILES | mortality at 500 µg/mL [1] | mortality at 500 µg/mL [2] | mortality at 500 µg/mL [3] | mortality at 10 µg/cm2 [4] | mortality at 500 µg/mL [5]
1 | O=C(Nc1ccc(F)cc1)C1=C(O)CC(c2ccc(C(F)(F)F)c(-c3ccc(F)nc3)c2)NC1=O (stereo not shown) [1-001, N-(4-fluorophenyl)-6-[3-(6-fluoropyridin-3-yl)-4-(trifluoromethyl)phenyl]-4-hydroxy-2-oxo-1,2,5,6-tetrahydropyridine-3-carboxamide] | ≥ 90% | ≥ 90% | ≥ 90% | ≥ 50% | ≥ 90%
2 | O=C(Nc1ccc(F)cc1)C1=C(O)CC(c2ccc(C(F)(F)F)c(-c3ccccc3)c2)NC1=O (stereo not shown) [1-004] | ≥ 90% | ≥ 90% |  | ≥ 50% | 
3 | O=C(Nc1ccc(F)cc1)C1=C(O)CC(c2ccc(C(F)(F)F)c(-c3ccccc3F)c2)NC1=O (stereo not shown) [1-005] | ≥ 90% | ≥ 90% | ≥ 90% | ≥ 50% | 
4 | CSc1ccccc1-c1cc(C2CC(O)=C(C(=O)Nc3ccc(F)cc3)C(=O)N2)ccc1C(F)(F)F (stereo not shown) [1-008] | ≥ 90% | ≥ 90% | ≥ 90% | ≥ 50% | 
5 | CSc1ccc(-c2cc(C3CC(O)=C(C(=O)Nc4ccc(F)cc4)C(=O)N3)ccc2C(F)(F)F)cc1 (stereo not shown) [1-009] | ≥ 90% | ≥ 90% | ≥ 90% | ≥ 50% | 
6 | CC(=O)c1cccc(-c2cc(C3CC(O)=C(C(=O)Nc4ccc(F)cc4)C(=O)N3)ccc2C(F)(F)F)c1 (stereo not shown) [1-011] | ≥ 90% | ≥ 90% | ≥ 90% | ≥ 50% | 
7 | O=C(Nc1ccc(F)cc1)C1=C(O)CC(c2ccc(C(F)(F)F)c(-c3ccncc3)c2)NC1=O (stereo not shown) [1-014] | ≥ 90% | ≥ 90% | ≥ 90% | ≥ 50% | ≥ 90%
8 | O=C(Nc1ccc(F)cc1)C1=C(O)CC(c2ccc(C(F)(F)F)c(-c3ccoc3)c2)NC1=O (stereo not shown) [1-015] | ≥ 90% | ≥ 90% | ≥ 90% | ≥ 50% | 
9 | COc1ccccc1-c1cc(C2CC(O)=C(C(=O)Nc3ccc(F)cc3)C(=O)N2)ccc1C(F)(F)F (stereo not shown) [1-016] | ≥ 90% | ≥ 90% | ≥ 90% | ≥ 50% | 
10 | COc1cccc(-c2cc(C3CC(O)=C(C(=O)Nc4ccc(F)cc4)C(=O)N3)ccc2C(F)(F)F)c1 (stereo not shown) [1-017] | ≥ 90% | ≥ 90% | ≥ 90% | ≥ 50% | 
11 | CS(=O)(=O)c1ccc(-c2cc(C3CC(O)=C(C(=O)Nc4ccc(F)cc4)C(=O)N3)ccc2C(F)(F)F)cc1 (stereo not shown) [1-019] | ≥ 90% | ≥ 90% | ≥ 90% | ≥ 50% | 
12 | N#Cc1ccc(-c2cc(C3CC(O)=C(C(=O)Nc4ccc(F)cc4)C(=O)N3)ccc2C(F)(F)F)cc1 (stereo not shown) [1-023] | ≥ 90% | ≥ 90% | ≥ 90% | ≥ 50% | 
13 | O=C(Nc1ccc(Cl)nc1)C1=C(O)CC(c2cnc(Cl)c(-c3ccc(F)nc3)c2)NC1=O (stereo not shown) [2-010] | ≥ 90% | ≥ 90% | ≥ 90% | ≥ 50% | ≥ 90%
14 | O=C(Nc1ccc(Cl)cc1)C1=C(O)CC(c2cnc(Cl)c(-c3ccc(F)nc3)c2)NC1=O (stereo not shown) [2-035, 6'-chloro-N-(4-chlorophenyl)-6"-fluoro-4-hydroxy-6-oxo-1,2,3,6-tetrahydro-[2,3':5',3"-terpyridine]-5-carboxamide] | ≥ 90% | ≥ 90% | ≥ 90% | ≥ 50% | ≥ 90%
15 | O=C(Nc1ccc(F)cc1)C1=C(O)CC(c2cnc(Cl)c(-c3cncc(F)c3)c2)NC1=O (stereo not shown) [2-058] | ≥ 90% | ≥ 90% | ≥ 90% | ≥ 50% | ≥ 90%
16 | O=C(Nc1ccc(F)nc1)C1=C(O)CC(c2cnc(Cl)c(-c3ccccc3)c2)NC1=O (stereo not shown) [2-091] | ≥ 90% | ≥ 90% | ≥ 90% | ≥ 50% | ≥ 90%
17 | N#Cc1ccc(NC(=O)C2=C(O)CC(c3cnc(Cl)c(-c4cccnc4)c3)NC2=O)cn1 (stereo not shown) [2-097] | ≥ 90% | ≥ 90% |  | ≥ 50% | ≥ 90%
